Results taken from patent US9513294B2, “Megastokes amino-triazolyl-BODIPY compounds and applications to live neuron staining and human serum albumin FA1 drug site probing” (National University of Singapore, priority 2012, dated 2016).

Experiments:
[1] = Absorbance and fluorescence emission spectra (SpectraMax M2); format: physicochemical; conditions: for λmax Absorp. (nm) / λmax Emission (nm): MKCA compound library; for λmax Absorp. (nm) / λmax Abs. (nm): absorbance maximum; for λmax Emission (nm) / λmax Em. (nm): fluorescence emission maximum; for λmax Abs. (nm) / λmax Em. (nm): MKAC compound library
Outline: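 Absorbance and emission maxima measured on a SpectraMax M2 spectrophotometer, which also gave quantum yield data; analysis in GraphPrism.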

[2] = Quantum yield measurements versus Acridine Yellow in EtOH; format: physicochemical; conditions: for φ (%): quantum yield; for φ (quantum yield): excitation 460 nm
Outline: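 Fluorescence quantum yield is relative to Acridine Yellow in EtOH (Φ 0.47), with excitation at 460 nm. Integrated emission at 510–700 nm was corrected for absorbance at the excitation wavelength and for solvent refractive index.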

CCOc1ccccc1CNC1=[N+]2C(=C(c3ccc(NC(=O)CCl)cc3)c3ccc(-n4cc(C5CC5)nn4)n3[B-]2(F)F)C=C1 [MKCA103-4]
λmax Absorp. (nm) [1]: 464 nm
λmax Emission (nm) [1]: 564 nm
φ (%) ([2]; MKCA compound library): 36.22%

CN(Cc1ccccc1)Cc1cn(-c2ccc3n2[B-](F)(F)[N+]2=C(N4CCCC4)C=CC2=C3c2ccc(N)cc2)nn1 [MK215-18]
λmax Absorp. ([1]; MK library, Table 5): 471 nm
λmax Emission ([1]; MK library, Table 5): 583 nm
φ (quantum yield) ([2]; MK library, Table 5): 0.24%

CCCCCC(O)c1cn(-c2ccc3n2[B-](F)(F)[N+]2=C(N4CCCCC4)C=CC2=C3c2ccc(NC(=O)CCl)cc2)nn1 (racemic) [BDCCA-69]
λmax Absorp. ([1]; BDCCA library, Table 4): 467 nm
λmax Emission ([1]; BDCCA library, Table 4): 587 nm
φ (quantum yield) ([2]; BDCCA library, Table 4): 0.7%

COc1cc(OC)cc(-c2cn(-c3ccc4n3[B-](F)(F)[N+]3=C(N5CCCCC5)C=CC3=C4c3ccc(NC(C)=O)cc3)nn2)c1 [BDCAC-14]
λmax Absorp. ([1]; BDCAC library, Table 3): 464 nm
λmax Emission ([1]; BDCAC library, Table 3): 588 nm
φ (quantum yield) ([2]; BDCAC library, Table 3): 1.0%

CC1CN(C2=[N+]3C(=C(c4ccc(N)cc4)c4ccc(-n5cc(CCc6ccccc6)nn5)n4[B-]3(F)F)C=C2)CC(C)O1 (stereo not drawn) [MK20-19]
λmax Absorp. ([1]; MK library, Table 5): 477 nm
λmax Emission ([1]; MK library, Table 5): 578 nm
φ (quantum yield) ([2]; MK library, Table 5): 0.34%

CCCCCC(O)c1cn(-c2ccc3n2[B-](F)(F)[N+]2=C(N(C)Cc4ccccc4)C=CC2=C3c2ccc(N)cc2)nn1 (stereo not drawn) [MK195-69]
λmax Absorp. ([1]; MK library, Table 5): 476 nm
λmax Emission ([1]; MK library, Table 5): 591 nm
φ (quantum yield) ([2]; MK library, Table 5): 0.28%

CCCC(C)c1cn(-c2ccc3n2[B-](F)(F)[N+]2=C(NCc4ccccc4C)C=CC2=C3c2ccc(NC(C)=O)cc2)nn1 (stereo not drawn) [MKA101-3]
λmax Abs. (nm) [1]: 464 nm
λmax Em. (nm) [1]: 562 nm
φ (%) ([2]; MKAC compound library): 21.57%

CCCCCC(O)c1cn(-c2ccc3n2[B-](F)(F)[N+]2=C(NCc4ccccc4OCC)C=CC2=C3c2ccc(N)cc2)nn1 (stereo not drawn) [MK103-69]
λmax Absorp. ([1]; MK library, Table 5): 474 nm
λmax Emission ([1]; MK library, Table 5): 563 nm
φ (quantum yield) ([2]; MK library, Table 5): 2.28%

CCCc1cn(-c2ccc3n2[B-](F)(F)[N+]2=C(N4CC(C)OC(C)C4)C=CC2=C3c2ccc(NC(C)=O)cc2)nn1 (stereo not drawn) [MKAC20-48]
λmax Abs. (nm) [1]: 467 nm
λmax Em. (nm) [1]: 581 nm
φ (%) ([2]; MKAC compound library): 2.93%

CC(=O)Nc1ccc(C2=C3C=CC(N(C)Cc4ccccc4)=[N+]3[B-](F)(F)n3c2ccc3-n2cc(CO)nn2)cc1 [MKAC195-70]
λmax Abs. (nm) [1]: 464 nm
λmax Em. (nm) [1]: 579 nm
φ (%) ([2]; MKAC compound library): 1.67%

CC(=O)Nc1ccc(C2=C3C=CC(NCc4cc(F)cc(F)c4)=[N+]3[B-](F)(F)n3c2ccc3-n2cc(CO)nn2)cc1 [MKAC412-70]
λmax Abs. (nm) [1]: 461 nm
λmax Em. (nm) [1]: 561 nm
φ (%) ([2]; MKAC compound library): 3.96%

CCOc1ccccc1CNC1=[N+]2C(=C(c3ccc(NC(C)=O)cc3)c3ccc(-n4cc(CCc5ccccc5)nn4)n3[B-]2(F)F)C=C1 [MKAC103-19]
λmax Abs. (nm) [1]: 464 nm
λmax Em. (nm) [1]: 562 nm
φ (%) ([2]; MKAC compound library): 29.05%

CC(=O)Nc1ccc(C2=C3C=CC(N4CC(C)OC(C)C4)=[N+]3[B-](F)(F)n3c2ccc3-n2cc(CO)nn2)cc1 (stereo not drawn) [MKAC20-70]
λmax Abs. (nm) [1]: 467 nm
λmax Em. (nm) [1]: 586 nm
φ (%) ([2]; MKAC compound library): 1.33%

CN(Cc1ccccc1)C1=[N+]2C(=C(c3ccc(N)cc3)c3ccc(-n4cc(C5CCCC5)nn4)n3[B-]2(F)F)C=C1 [MK195-5]
λmax Absorp. ([1]; MK library, Table 5): 477 nm
λmax Emission ([1]; MK library, Table 5): 579 nm
φ (quantum yield) ([2]; MK library, Table 5): 0.39%

CCCC(C)c1cn(-c2ccc3n2[B-](F)(F)[N+]2=C(NCc4cc(OC)ccc4OC)C=CC2=C3c2ccc(NC(C)=O)cc2)nn1 (racemic) [MKAC181-3]
λmax Abs. (nm) [1]: 465 nm
λmax Em. (nm) [1]: 562 nm
φ (%) ([2]; MKAC compound library): 15.41%

Cc1ccccc1CNC1=[N+]2C(=C(c3ccc(NC(=O)CCl)cc3)c3ccc(-n4cc(CC5CCCCC5)nn4)n3[B-]2(F)F)C=C1 [MKCA101-8]
λmax Absorp. (nm) [1]: 464 nm
λmax Emission (nm) [1]: 562 nm
φ (%) ([2]; MKCA compound library): 30.95%

Cc1ccccc1CNC1=[N+]2C(=C(c3ccc(N)cc3)c3ccc(-n4cc(CO)nn4)n3[B-]2(F)F)C=C1 [MK101-70]
λmax Absorp. ([1]; MK library, Table 5): 474 nm
λmax Emission ([1]; MK library, Table 5): 565 nm
φ (quantum yield) ([2]; MK library, Table 5): 1.92%

CCCC(C)c1cn(-c2ccc3n2[B-](F)(F)[N+]2=C(N(C)Cc4ccccc4)C=CC2=C3c2ccc(NC(C)=O)cc2)nn1 (racemic) [MKAC195-3]
λmax Abs. (nm) [1]: 465 nm
λmax Em. (nm) [1]: 574 nm
φ (%) ([2]; MKAC compound library): 6.53%

CC(=O)Nc1ccc(C2=C3C=CC(NCc4cc(F)cc(F)c4)=[N+]3[B-](F)(F)n3c2ccc3-n2cc(CN(C)Cc3ccccc3)nn2)cc1 [MKAC412-18]
λmax Abs. (nm) [1]: 465 nm
λmax Em. (nm) [1]: 561 nm
φ (%) ([2]; MKAC compound library): 21.83%

O=C(CCl)Nc1ccc(C2=C3C=CC(N4CCCCC4)=[N+]3[B-](F)(F)n3c2ccc3-n2cc(C3CCCC3)nn2)cc1 [BDCCA-5]
λmax Absorp. ([1]; BDCCA library, Table 4): 468 nm
λmax Emission ([1]; BDCCA library, Table 4): 588 nm
φ (quantum yield) ([2]; BDCCA library, Table 4): 0.9%

CC(=O)Nc1ccc(C2=C3C=CC(N4CCCCC4)=[N+]3[B-](F)(F)n3c2ccc3-n2cc(C3CC3)nn2)cc1 [BDCAC-4]
λmax Absorp. ([1]; BDCAC library, Table 3): 467 nm
λmax Emission ([1]; BDCAC library, Table 3): 578 nm
φ (quantum yield) ([2]; BDCAC library, Table 3): 1.5%

CC(=O)Nc1ccc(C2=C3C=CC(N4CCCCC4)=[N+]3[B-](F)(F)n3c2ccc3-n2cc(CN(C)Cc3ccccc3)nn2)cc1 [BDCAC-18]
λmax Absorp. ([1]; BDCAC library, Table 3): 465 nm
λmax Emission ([1]; BDCAC library, Table 3): 588 nm
φ (quantum yield) ([2]; BDCAC library, Table 3): 0.8%

CC(C)Cc1cn(-c2ccc3n2[B-](F)(F)[N+]2=C(N4CC(C)OC(C)C4)C=CC2=C3c2ccc(N)cc2)nn1 (stereo not drawn) [MK20-43]
λmax Absorp. ([1]; MK library, Table 5): 478 nm
λmax Emission ([1]; MK library, Table 5): 584 nm
φ (quantum yield) ([2]; MK library, Table 5): 0.23%

CCCC(C)c1cn(-c2ccc3n2[B-](F)(F)[N+]2=C(NCc4cc(F)cc(F)c4)C=CC2=C3c2ccc(N)cc2)nn1 (stereo not drawn) [MK412-3]
λmax Absorp. ([1]; MK library, Table 5): 476 nm
λmax Emission ([1]; MK library, Table 5): 562 nm
φ (quantum yield) ([2]; MK library, Table 5): 0.63%

Cc1ccccc1CNC1=[N+]2C(=C(c3ccc(NC(=O)CCl)cc3)c3ccc(-n4cc(CO)nn4)n3[B-]2(F)F)C=C1 [MKCA101-70]
λmax Absorp. (nm) [1]: 465 nm
λmax Emission (nm) [1]: 560 nm
φ (%) ([2]; MKCA compound library): 21.76%

Cc1ccc(-c2cn(-c3ccc4n3[B-](F)(F)[N+]3=C(N5CCCCC5)C=CC3=C4c3ccc(NC(=O)CCl)cc3)nn2)cc1 [BDCCA-10]
λmax Absorp. ([1]; BDCCA library, Table 4): 463 nm
λmax Emission ([1]; BDCCA library, Table 4): 558 nm
φ (quantum yield) ([2]; BDCCA library, Table 4): 2.9%

CN(Cc1ccccc1)Cc1cn(-c2ccc3n2[B-](F)(F)[N+]2=C(N4CCCCC4)C=CC2=C3c2ccc(N)cc2)nn1 [BDC-18]
λmax Absorp. ([1]; BDC library, Table 2): 471 nm
λmax Emission ([1]; BDC library, Table 2): 580 nm
φ (quantum yield) ([2]; BDC library, Table 2): 0.18%

O=C(CCl)Nc1ccc(C2=C3C=CC(N4CCCCC4)=[N+]3[B-](F)(F)n3c2ccc3-n2cc(-c3ccc(-c4ccccc4)cc3)nn2)cc1 [BDCCA-23]
λmax Absorp. ([1]; BDCCA library, Table 4): 464 nm
λmax Emission ([1]; BDCCA library, Table 4): 575 nm
φ (quantum yield) ([2]; BDCCA library, Table 4): 1.2%

CCCc1cn(-c2ccc3n2[B-](F)(F)[N+]2=C(N4CC(C)OC(C)C4)C=CC2=C3c2ccc(N)cc2)nn1 (stereo not drawn) [MK20-48]
λmax Absorp. ([1]; MK library, Table 5): 476 nm
λmax Emission ([1]; MK library, Table 5): 580 nm
φ (quantum yield) ([2]; MK library, Table 5): 0.25%

CC(=O)Nc1ccc(C2=C3C=CC(N4CCc5ccccc5C4)=[N+]3[B-](F)(F)n3c2ccc3-n2cc(CO)nn2)cc1 [MKAC66-70]
λmax Abs. (nm) [1]: 468 nm
λmax Em. (nm) [1]: 582 nm
φ (%) ([2]; MKAC compound library): 1.44%

CC(=O)Nc1ccc(C2=C3C=CC(NCc4ccccc4C)=[N+]3[B-](F)(F)n3c2ccc3-n2cc(CCc3ccccc3)nn2)cc1 [MKAC101-19]
λmax Abs. (nm) [1]: 464 nm
λmax Em. (nm) [1]: 560 nm
φ (%) ([2]; MKAC compound library): 23.26%
